# Laboratory results published in patent publication US20230257653A1, “FRACTAL FORMULATIONS” (NANOGYRE Sprl., priority 2020, published 2023).
# Where two headings read alike, the source gives them in different places.
# Columns and labels:
# [1] = Solubilization of hydrophobic cargo in betaine/Polysorbate 80/water liquid crystal, centrifugation 4000 rpm
# Procedure: Mixing 2 ml of distilled water and 40 μL of Polysorbate 80, then adding 400 mg of pure curcumin, manually mixing and then adding 2 g of betaine all again mixed by vigorous manual stirring. The mixture of the 4 ingredients is then subjected for 20 minutes to a centrifugation of 4000 rpm.
# (§1) The mixture of the 4 ingredients is then subjected for 30 minutes to a centrifugation of 4000 rpm.
# The mixture of the 4 ingredients is then subjected for 40 minutes to a centrifugation of 4000 rpm.
# as §1
# Mixing 2 ml of distilled water and 35 μL of Polysorbate 80, then adding 50 mg of Clofazimine, mixing manually and then subjecting to a centrifugation of 4000 rpm and then adding 2 g of betaine all again mixed by vigorous manual stirring. The mixture of the 4 ingredients is then subjected for 30 minutes to a centrifugation of 4000 rpm.
# [2] = Visual stability of the mother solution diluted in distilled water (pH 7) or acetic acid (pH 2.2); type: physicochemical; conditions: absence of light, 24 h
# Procedure: (§2) 400 μl of the solution produced are taken and poured into a tube of 5 ml of distilled water (pH 7).
# 400 μl of the solution produced are taken and poured into a tube of 5 ml of acetic acid (pH 2.2).
# as §2
# 200 μl of the solution produced are taken and poured into a tube of 5 ml of distilled water (pH 7).
# 200 μl of the solution produced are taken and poured into a tube of 5 ml of acetic acid (pH 2.2).
# 250 μl of the solution produced are taken and poured into a tube of 5 ml of distilled water (pH 7).
# 250 μl of the solution produced are taken and poured into a tube of 5 ml of acetic acid (pH 2.2).
# [3] = Storage stability of the mother solution (deposition); conditions: no ethanol
# [4] = Redissolution of dried, ground liquid crystal powders and visual pH variation test; type: physicochemical; conditions: for changes of resolubilized dry powder solution over time: absence of light, 24 h
# Procedure: The remaining solution of the preceding example is poured into a glass Petri dish (diameter 35 mm) and subjected to drying at 60° C. in a hot air dehydrator (Stockli).
# The dry product is then ground until it reaches±50 Mesh and stored in the absence of light and moisture for 10 days.
# Next, 100 mg of dry powder are taken and poured into a tube of 5 ml of distilled water (pH 7).
# Next, 100 mg of dry powder are taken and poured into a tube of 5 ml of acetic acid (pH 2.2).
# Then this acidic solution is brought to an alkaline pH of 8 by adding sodium bicarbonate, in order to mimic the conditions of the pH differences encountered in the stomach and then the intestine.
# [5] = substance alone; cited from earlier work
# [6] = octanol/water partition coefficient; cited from earlier work
# [7] = DLS (Dynamic Light Scattering) particle size of resolubilized dry powder, Zetasizer; type: physicochemical; conditions: 100 mg dry powder in 100 ml pure water, kept in the dark 14 days
# Procedure: 100 mg of dry powder of Curcumin of the preceding example are dissolved in 100 ml of pure water before being kept in the dark for 14 days. This solution is then evaluated with DLS (Dynamic Light Scattering) in a Zetasizer apparatus (University of Namur).
# [8] = mother solution poured into 5 ml acetic acid (pH 2.2)
# [9] = mother solution poured into 5 ml distilled water (pH 7)
non-solubilized fraction remaining in the bottom of the tube (pellet/base) [1],"concentration of mother solution weighted for the pellet/base ([1]; 2 ml water, 40 μL Polysorbate 80, 2 g betaine, no ethanol) [µg/mL]",average particle size of the solution [7] [nanometers],polydispersity [7],SMILES,"estimated concentration of mother solution after centrifugation ([1]; 2 ml water, Polysorbate 80, 2 g betaine, no ethanol) [mg/mL]","changes of diluted solution over time [2, 8]","changes of diluted solution over time [2, 9]",stability of mother solution on storage [3],estimated concentration of mother solution after centrifugation [1] [mg/mL],factor by which solubility in water was multiplied [1],solubilization result (visual) [1],dissolution of dry powder ([4]; 100 mg dry powder (stored 10 days) in 5 ml acetic acid (pH 2.2)),dissolution of dry powder ([4]; 100 mg dry powder (stored 10 days) in 5 ml distilled water (pH 7)),changes of resolubilized dry powder solution over time ([4]; 5 ml acetic acid (pH 2.2)),changes of resolubilized dry powder solution over time ([4]; 5 ml distilled water (pH 7)),stability of the acidic solution brought to alkaline pH ([4]; pH 2.2 solution brought to pH 8 with sodium bicarbonate),Solubility in Water [5] [µg/mL],Log P [6]
,,,,C=C(C)[C@@H]1CCC(C)=C[C@H]1c1c(O)cc(CCCCC)cc1O [Cannabidiol],47,no changes over time,no changes over time,"remained stable without any deposition, or modification for a year",,,,,,,,,,
,,,,CC(C)/N=c1\cc2n(-c3ccc(Cl)cc3)c3ccccc3nc-2cc1Nc1ccc(Cl)cc1 [Clofazimine],,no changes over time,no changes over time,,14.7,9730,completely solubilized,immediately solubilizes,immediately solubilizes,no changes over time,no changes over time,remains stable without any precipitation or modification,1.51,7.39
30-40%,60000,≤ 10,very low,COc1cc(/C=C/C(=O)CC(=O)/C=C/c2ccc(O)c(OC)c2)ccc1O [Curcumin],,no changes over time,no changes over time,,80,"10,000",,,,,,,5.75,
